Measurements published in US10717946B2, “Water soluble essential oils and their use” (KIMBERLY-CLARK WORLDWIDE, INC., priority 2012, dated 2020).
Read-outs that look alike come from different tables or passages of the source.

System: C. albicans SC5314
Type: cell-based, Candida albicans
Method: Based on the results in FIG. 3, single cell suspensions of SC5314 was prepared as follows. Stock culture of C. albicans SC5314 was streaked onto YPD agar (YPDA) and incubated at 30° C. overnight. Single colonies were subcultured in YPD broth (YPDB) and incubated at 30° C., 200 rpm overnight. Overnight culture in YPDB was subcultured in YPD broth again and incubated at 30° C., 200 rpm 48 h. Cells were collected by centrifugation (4000 g 10 min) at 4° C., washed three times with sterile water, and then resuspended in sterile water at a final concentration of 10^9 colony-forming unit/ml (cfu/ml). The suspension was stored at 4° C. at least 1 d, then subcultured into YPDB to a final concentration of 10^6 cfu/ml. After 48 h incubation, cell suspension was examined under the microscope for single cell percentage. When the single cell percentage exceeded 80%, cells were collected and washed three times with water, then resuspended in water to a final concentration of 10^9 cfu/ml, and stored at 4° C. for no more than a month.
Two approaches were taken to determine the percentage of cells with germ tubes formed (GTF %). One way was to count the total cells at the start of incubation, and count the ungerminated cells after incubation, then calculate the GTF % as (1−ungerminated cells/total cells at 0 h)*100. Another way was to store the samples at 15° C. for 20 h after incubation, then count the germinated cells and total cells after disaggregation, then calculated the GTF % as (germinated cells/total cells after storage)*100. […] Therefore, for practical purposes, the GTF % was determined by the first method, that is, GTF %=(1−ungerminated cells/total cells at 0 h)*100, for the in vitro screening discussed herein.
A screening medium, containing 11 mM imidazole buffer, 3 m MMgSO4, and 2.6 mM N-acetyl-D-glucosamine (GlcNAc) has been used to study the effect of farnesol analogs on the germ tube formation of C. albicans. Here, the germ tube formation of C. albicans in modified screening media was assessed with various concentrations of imidazole buffer (10 mM, 30 mM, and 50 mM) and MgSO4 (0.5 mM, 1.5 mM, and 3 mM). […] It took 2 h to 3 h for the GTF % to reach above 80%. For practical purposes, the screening medium, containing 11 mM imidazole buffer, 0.5 m MMgSO4, and 2.6 mM N-acetyl-D-glucosamine (GlcNAc) was adopted for in vitro screening the quorum sensing inhibitory effect of farnesol compounds and botanicals. […]

Question: How did the “GTF % (mean ± SEM, n = 3)” value (1 mM) turn out when `Cc1ccc(C(C)C)c(O)c1` [Thymol] was run?
Answer: The value was 43.7 ± 5.2%.

Question: Which “GTF %control-GTF %sample (mean ± SD, n = 3)” value (0.1%) does the source give for `C=CCCCCCCCC` [1-Decene] here?
Answer: The value was 0%.

Question: What about the “GTF %control-GTF %sample (mean ± SD, n = 3)” value (0.2%) of the same compound?
Answer: The value was 35.2 ± 5.2 %.

Question: How did the “GTF %control-GTF %sample (mean ± SD, n = 3)” value ((0.0022%)) turn out when `CC(C)=CCCC(C)=CCCC(C)=CCO` [farnesol] was run?
Answer: Its value is 25.0 ± 4.1%.
